PubChem BioAssay (NCI)
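Five compound concentrations were applied to cells in 96-well plates for 48 hours; endpoints were derived by simple linear interpolation of the resulting dose-response curve. Abbreviation: GI50, concentration required for 50% inhibition of growth. TGI: total growth inhibition.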

Tests used:
Test in all cases: inhibition of tumour cell growth, NCI panel, 48 h
786-0 renal = test system: 786-0 renal
A498 renal = test system: A498 renal
A549 NSCLC = test system: A549 NSCLC
ACHN renal = test system: ACHN renal
BT-549 breast = test system: BT-549 breast
CAKI-1 renal = test system: CAKI-1 renal
CCRF-CEM leukemia = test system: CCRF-CEM leukemia
COLO 205 colon = test system: COLO 205 colon
DU-145 prostate = test system: DU-145 prostate
EKVX NSCLC = test system: EKVX NSCLC
HCC-2998 colon = test system: HCC-2998 colon
HCT-116 colon = test system: HCT-116 colon
HCT-15 colon = test system: HCT-15 colon
HL-60(TB) leukemia = test system: HL-60(TB) leukemia
HOP-62 NSCLC = test system: HOP-62 NSCLC
HOP-92 NSCLC = test system: HOP-92 NSCLC
HS 578T breast = test system: HS 578T breast
HT29 colon = test system: HT29 colon
IGROV1 ovarian = test system: IGROV1 ovarian
K-562 leukemia = test system: K-562 leukemia
KM12 colon = test system: KM12 colon
LOX IMVI melanoma = test system: LOX IMVI melanoma
M14 melanoma = test system: M14 melanoma
MALME-3M melanoma = test system: MALME-3M melanoma
MCF7 breast = test system: MCF7 breast
MDA-MB-231 breast = test system: MDA-MB-231 breast
MDA-MB-435 = test system: MDA-MB-435
MDA-MB-468 breast = test system: MDA-MB-468 breast
MOLT-4 leukemia = test system: MOLT-4 leukemia
NCI-H226 lung = test system: NCI-H226 lung
NCI-H23 lung = test system: NCI-H23 lung
NCI-H460 lung = test system: NCI-H460 lung
NCI-H522 lung = test system: NCI-H522 lung
NCI/ADR-RES ovarian = test system: NCI/ADR-RES ovarian
OVCAR-3 ovarian = test system: OVCAR-3 ovarian
OVCAR-4 ovarian = test system: OVCAR-4 ovarian
OVCAR-5 ovarian = test system: OVCAR-5 ovarian
OVCAR-8 ovarian = test system: OVCAR-8 ovarian
PC-3 prostate = test system: PC-3 prostate
RPMI-8226 leukemia = test system: RPMI-8226 leukemia
RXF 393 renal = test system: RXF 393 renal
SF-268 CNS = test system: SF-268 CNS
SF-295 CNS = test system: SF-295 CNS
SF-539 CNS = test system: SF-539 CNS
SK-MEL-2 melanoma = test system: SK-MEL-2 melanoma
SK-MEL-28 melanoma = test system: SK-MEL-28 melanoma
SK-MEL-5 melanoma = test system: SK-MEL-5 melanoma
SK-OV-3 ovarian = test system: SK-OV-3 ovarian
SN12C renal = test system: SN12C renal
SNB-19 CNS = test system: SNB-19 CNS
SNB-75 CNS = test system: SNB-75 CNS
SR leukemia = test system: SR leukemia
SW-620 colon = test system: SW-620 colon
T-47D breast = test system: T-47D breast
TK-10 renal = test system: TK-10 renal
U251 CNS = test system: U251 CNS
UACC-257 melanoma = test system: UACC-257 melanoma
UACC-62 melanoma = test system: UACC-62 melanoma
UO-31 renal = test system: UO-31 renal

CN(C)c1nc(NCCNS(=O)(=O)c2ccc(C(=O)/C=C/c3ccccc3)cc2)nc(Nc2ccc(F)cc2)n1
GI50 (786-0 renal): 11.2 µM | TGI (786-0 renal): 25.3 µM | GI50 (A498 renal): 11.6 µM | TGI (A498 renal): 24 µM | GI50 (A549 NSCLC): 8.33 µM | TGI (A549 NSCLC): 26 µM | GI50 (ACHN renal): 4.92 µM | TGI (ACHN renal): 17.3 µM | GI50 (BT-549 breast): 13.9 µM | TGI (BT-549 breast): 27.5 µM | GI50 (CAKI-1 renal): 4.75 µM | TGI (CAKI-1 renal): 19.7 µM | GI50 (CCRF-CEM leukemia): 6.59 µM | TGI (CCRF-CEM leukemia): > 100 µM | GI50 (COLO 205 colon): 5.46 µM | TGI (COLO 205 colon): 20.8 µM | GI50 (DU-145 prostate): 12.1 µM | TGI (DU-145 prostate): 25.3 µM | GI50 (EKVX NSCLC): 4.48 µM | TGI (EKVX NSCLC): 14.8 µM | GI50 (HCC-2998 colon): 2.35 µM | TGI (HCC-2998 colon): 5.46 µM | GI50 (HCT-116 colon): 1.72 µM | TGI (HCT-116 colon): 3.24 µM | GI50 (HCT-15 colon): 2.04 µM | TGI (HCT-15 colon): 3.84 µM | GI50 (HL-60(TB) leukemia): 3.88 µM | TGI (HL-60(TB) leukemia): 29.3 µM | GI50 (HOP-62 NSCLC): 11.8 µM | TGI (HOP-62 NSCLC): 26.8 µM | GI50 (HOP-92 NSCLC): 8.1 µM | TGI (HOP-92 NSCLC): 23.4 µM | GI50 (HS 578T breast): 7.39 µM | TGI (HS 578T breast): 57.8 µM | GI50 (HT29 colon): 3.08 µM | TGI (HT29 colon): 10.6 µM | GI50 (IGROV1 ovarian): 11.2 µM | TGI (IGROV1 ovarian): 23.8 µM | GI50 (K-562 leukemia): 3.34 µM | TGI (K-562 leukemia): 18.6 µM | GI50 (KM12 colon): 3.74 µM | TGI (KM12 colon): 14 µM | GI50 (LOX IMVI melanoma): 2.47 µM | TGI (LOX IMVI melanoma): 7.14 µM | GI50 (M14 melanoma): 5.98 µM | TGI (M14 melanoma): 20 µM | GI50 (MALME-3M melanoma): 12.7 µM | TGI (MALME-3M melanoma): 26.3 µM | GI50 (MCF7 breast): 1.99 µM | TGI (MCF7 breast): 4.05 µM | GI50 (MDA-MB-231 breast): 4.84 µM | TGI (MDA-MB-231 breast): 18.1 µM | GI50 (MDA-MB-435): 7.44 µM | TGI (MDA-MB-435): 23 µM | GI50 (MDA-MB-468 breast): 2.84 µM | TGI (MDA-MB-468 breast): 12.8 µM | GI50 (MOLT-4 leukemia): 3.22 µM | TGI (MOLT-4 leukemia): 29.6 µM | GI50 (NCI-H226 lung): 5.22 µM | TGI (NCI-H226 lung): 19.8 µM | GI50 (NCI-H23 lung): 10.1 µM | TGI (NCI-H23 lung): 22.5 µM | GI50 (NCI-H460 lung): 4.34 µM | TGI (NCI-H460 lung): 16.8 µM | GI50 (NCI-H522 lung): 5.47 µM | TGI (NCI-H522 lung): 20.4 µM | GI50 (NCI/ADR-RES ovarian): 7.33 µM | TGI (NCI/ADR-RES ovarian): 21.1 µM | GI50 (OVCAR-3 ovarian): 8.59 µM | TGI (OVCAR-3 ovarian): 21.4 µM | GI50 (OVCAR-4 ovarian): 4.39 µM | TGI (OVCAR-4 ovarian): 23.1 µM | GI50 (OVCAR-5 ovarian): 13.3 µM | TGI (OVCAR-5 ovarian): 26.6 µM | GI50 (OVCAR-8 ovarian): 12.2 µM | TGI (OVCAR-8 ovarian): 26.4 µM | GI50 (PC-3 prostate): 4.39 µM | TGI (PC-3 prostate): 20.6 µM | GI50 (RPMI-8226 leukemia): 3.04 µM | TGI (RPMI-8226 leukemia): > 100 µM | GI50 (RXF 393 renal): 2.94 µM | TGI (RXF 393 renal): 14.6 µM | GI50 (SF-268 CNS): 5.65 µM | TGI (SF-268 CNS): 22.2 µM | GI50 (SF-295 CNS): 6.96 µM | TGI (SF-295 CNS): 19.3 µM | GI50 (SF-539 CNS): 12 µM | TGI (SF-539 CNS): 24.5 µM | GI50 (SK-MEL-2 melanoma): 10.6 µM | TGI (SK-MEL-2 melanoma): 24.3 µM | GI50 (SK-MEL-28 melanoma): 10.2 µM | TGI (SK-MEL-28 melanoma): 22.2 µM | GI50 (SK-MEL-5 melanoma): 4.7 µM | TGI (SK-MEL-5 melanoma): 16.9 µM | GI50 (SK-OV-3 ovarian): 13 µM | TGI (SK-OV-3 ovarian): 29.7 µM | GI50 (SN12C renal): 8.2 µM | TGI (SN12C renal): 20.7 µM | GI50 (SNB-19 CNS): 10.4 µM | TGI (SNB-19 CNS): 23 µM | GI50 (SNB-75 CNS): 3.23 µM | TGI (SNB-75 CNS): 33.4 µM | GI50 (SR leukemia): 2.58 µM | TGI (SR leukemia): 8.25 µM | GI50 (SW-620 colon): 5.56 µM | TGI (SW-620 colon): 20.4 µM | GI50 (T-47D breast): 3.45 µM | TGI (T-47D breast): 14.2 µM | GI50 (TK-10 renal): 14.6 µM | TGI (TK-10 renal): 30.9 µM | GI50 (U251 CNS): 10.4 µM | TGI (U251 CNS): 24.5 µM | GI50 (UACC-257 melanoma): 12.6 µM | TGI (UACC-257 melanoma): 27.8 µM | GI50 (UACC-62 melanoma): 6.68 µM | TGI (UACC-62 melanoma): 20.3 µM | GI50 (UO-31 renal): 4.6 µM | TGI (UO-31 renal): 17.2 µM
